Laboratory results taken from patent US4221805A, “Method of inducing platelet antiaggregation activity” (priority 1978, dated 1980).

Experiments:
[1] = Acute toxicity in rats, oral administration (LD50); format: in vivo; conditions: rat, in vivo
Method: (§1) 200 albino rats, 100 male and 100 female, of the Wistar strain and weighing 130-150 grams were divided into groups of 10 animals each.
(§2) After being caged for some days at constant temperature (21°±1° C.) and humidity (60±5%), the animals were fasted for 24 hours before treatment.
(§3) The MRAP2 was administered in a single administration either orally or endoperitoneally, following the method heretofore described.
(§4) Teh LD50 was evaluated for each method of administration using the Litchfield and Wilcoxon method, based on the percentage mortality recorded in each group of rats during the seven days following treatment.
(§5) Five groups of 20 animals, 10 male and 10 female were used.

rats [2] = test: Acute toxicity in rats, oral administration (LD50); format: in vivo; conditions: 20 animals per dose
Method: as §1, §2, §3, §4, §5

[3] = system: cardiovascular system of cats; test: Effect on the cardiovascular system of cats; format: in vivo; conditions: intravenous 5 mg/kg
Method: Three cats weighing 2.4-2.6 kg were used for this test. The MRAP2 was administered intravenously in a dose of 5 mg/kg, carried in a sterile physiological solution. The animals, under combined anaesthesia with ethylurethane and diallylbarbituric acid, were subjected to measurements, by means of the Battaglia-Rangoni polygraph, of the arterial pressure, the cardiac frequency, the nictitation and the electrocardiac activity, before and up to two hours after the administration of the drug.

[4] = Acute toxicity in rats, endoperitoneal administration (LD50); format: in vivo; conditions: rat, in vivo, ip
Method: as §1, §2, §3, §4, §5

rats [5] = test: as above; format: in vivo; conditions: 20 animals per dose
Method: as §1, §2, §3, §4, §5

stomach (gastric lesion) = test: Ulcerogenic activity in rats after prolonged administration; format: in vivo, male albino rats, Wistar strain
Method: The ulcerogenic activity of MRAP2 was tested both after a single administration of the drug, and after prolonged administration. In these tests, a total of 70 male albino rats of Wistar strain were used, having a weight of 200±20 grams. The MRAP2 was administered diluted in tap water. The points given for gastric ulcerative lesions were as follows: (0) no lesion; (1) hyperaemia or slight capillary obstruction; or slight loss of the epithelium; or some petechiae even with pale mucosa without hyperaemia; (2) diffuse capillary obstructions or numerous petechiae; or diffuse loss of the epithelium; of a few surface lesions; (3) strong submucosa haemorrhage; or many petechiae and small surface lesions; or much anaemic mucosa (yellowish colour); or up to three small ulcers; (4) general pattern as in the previous numbers, plus up to ten small ulcers; or long erosions; or up to three medium sized ulcers; (5) pattern as in number 4, with up to 15 small ulcers; or up to 6 large ulcers; (6) pattern as previously, with up to ten large ulcers, plus small ulcers; (7) pattern as previously, plus up to ten large ulcers and small ulcers; cases of perforated ulcers. 30 Rats were divided into three batches of ten animals each, and subjected daily over a period of six days to the following oral treatment: 1st group: controls 2nd group: MRAP2 (50 mg/kg) 3rd group: MRAP2 (125 mg/kg) Six hours after the last treatment, the animals were killed and the lesion index was evaluated following the techniques and methods previously described.

With Cl.Clc1ccccc1CN1CCCC1 [MRAP2, N-(2-chlorobenzyl)-pyrrolidine hydrochloride] the mortality at 168 h ([1]; 400 mg/kg) was 0%, the mortality at 168 h ([1]; 500 mg/kg) was 20% and the mortality at 168 h ([1]; 600 mg/kg) was 40%. For the same molecule, the mortality at 168 h ([1]; 800 mg/kg) was 75%, the mortality at 168 h ([1]; 1000 mg/kg) was 100% and the LD50 at 168 h ([1]; single administration, 7 days, 95% limits 631-714) was 675 mg/kg. For the same molecule, the “No. of animals dead” value (rats [2]; 400 mg/kg) was 0, the “No. of animals dead” value (rats [2]; 500 mg/kg) was 4 and the “No. of animals dead” value (rats [2]; 600 mg/kg) was 8. The “No. of animals dead” value (rats [2]; 800 mg/kg) was 15, the “No. of animals dead” value (rats [2]; 1000 mg/kg) was 20 and the hypertensive effect ([3]; in the four minutes following introduction of the drug) was “slight hypertensive effect”. For the same molecule, the “undesirable effects on the cardiovascular system” value ([3]; up to two hours) was “does not give rise to any undesirable effects on the cardiovascular system”, the mortality at 168 h ([4]; 50 mg/kg) was 0% and the mortality at 168 h ([4]; 100 mg/kg) was 5%. It also gave a mortality at 168 h ([4]; 200 mg/kg) of 55%, a mortality at 168 h ([4]; 300 mg/kg) of 85% and a mortality at 168 h ([4]; 400 mg/kg) of 100%. The LD50 at 168 h ([4]; single administration, 7 days, 95% limits 174-203) was 188 mg/kg, the “No. of animals dead” value (rats [5]; 50 mg/kg) was 0 and the “No. of animals dead” value (rats [5]; 100 mg/kg) was 1. For the same molecule, the “No. of animals dead” value (rats [5]; 200 mg/kg) was 11, the “No. of animals dead” value (rats [5]; 300 mg/kg) was 17 and the “No. of animals dead” value (rats [5]; 400 mg/kg) was 20. For the same molecule, the “Average degree of lesion ± E.E.” value (stomach (gastric lesion); oral 50 mg/kg daily for six days, scale 0-7, controls 0.57 ± 0.1) was 0.86 ± 0.2, the “Average degree of lesion ± E.E.” value (stomach (gastric lesion); oral 125 mg/kg daily for six days, scale 0-7, controls 0.57 ± 0.1, P <0.05 with regard to controls) was 1.07 ± 0.2 and the “ulcerogenic activity (in words)” value (stomach (gastric lesion); oral daily for six days) was “significant only at a dose of 125 mg/kg, but even then only slight”.
